Laboratory results: paper PMC6263544, “Second-generation pterocarpanquinones: synthesis and antileishmanial activity” (The Journal of Venomous Animals and Toxins Including …, 2018)

Key:
[1] = tested on: intracellular amastigotes of L. amazonensis; set-up: method as in PMID 21531758; settings: read-out: L. amazonensis Amastigote IC50; cited from earlier work
[2] = tested on: intracellular amastigotes of L. braziliensis; experiment: Antiamastigote test, L. braziliensis in golden hamster macrophages; format: cell-based; settings: CC50 in Macrophages/IC50 in intracellular amastigotes
Procedure: Macrophages of golden hamsters were used in assays against intracellular amastigotes of L. braziliensis due to the natural resistance of mice. Resident macrophages were obtained from the peritoneal cells of golden hamsters after a peritoneal injection of 10 mL of Dulbecco’s Modified Eagle’s medium (DMEM) (Sigma-Aldrich). The peritoneal macrophages were plated onto glass coverslips placed within the wells of a 24-well culture plate and incubated at 37 °C in 5% CO2 for 1 h. After removing the nonadherent cells, the monolayers were infected with stationary-phase L. braziliensis promastigotes at a 5:1 parasite/macrophage ratio for 4 h. The infected macrophages were washed and incubated with several pterocarpanquinone concentrations (0-25 μM) for 72 h. The monolayers were then stained with Giemsa, and at least 100 infected macrophages per sample were counted under optical microscopy.
(§1) The results were expressed as an infection index (% infected cells×number of amastigotes/total number of macrophages). The 50% inhibitory concentration (IC50) was determined by nonlinear regression analysis in the software GraphPad Prism 5.

[3] = tested on: L. amazonensis promastigotes; set-up: method as in PMID 21531758; settings: read-out: L. amazonensis Promastigote IC50; cited from earlier work
[4] = tested on: L. infantum promastigotes; set-up: method as in PMID 27067332; settings: read-out: L. infantum Promastigote IC50; cited from earlier work
[5] = tested on: intracellular amastigotes of L. infantum; experiment: Antiamastigote test, L. infantum in mouse peritoneal macrophages; format: cell-based, Leishmania infantum; settings: CC50 in Macrophages/IC50 in intracellular amastigotes
Procedure: (§2) For the test against intracellular amastigotes of L. amazonensis and L. infantum, resident peritoneal macrophages (swiss mouse) were plated in RPMI (Sigma-Aldrich) at 2 × 10^6/mL (0.4 mL/well) in Lab-Tek eight-chamber slides (Nunc, Roskilde, Denmark) and incubated at 37 °C in 5% CO2 for 1 h. Stationary-phase L. amazonensis and L. infantum promastigotes were added at respective parasite/macrophage ratios of 3:1 and 5:1 for 4 h. After washing three times, pterocarpanquinones 2a-f at various concentrations were added for 72 h. Next, the slides were stained using an Instant Prov hematological dye system (Newprov, Curitiba, Brazil). The number of amastigotes was determined by counting at least 100 macrophages per sample.
as §1

[6] = tested on: L. braziliensis promastigotes; set-up: method as in PMID 25340550; settings: read-out: L. braziliensis Promastigote IC50; cited from earlier work
[7] = tested on: intracellular amastigotes of L. amazonensis; experiment: Antiamastigote test, L. amazonensis in mouse peritoneal macrophages; format: cell-based, Leishmania amazonensis; settings: CC50 in Macrophages/IC50 in intracellular amastigotes
Procedure: as §2, §1

[8] = tested on: intracellular amastigotes of L. infantum; set-up: method as in PMID 27067332; settings: read-out: L. infantum Amastigote IC50; cited from earlier work
[9] = tested on: intracellular amastigotes of L. braziliensis; set-up: method as in PMID 25340550; settings: read-out: L. braziliensis Amastigote IC50; cited from earlier work
[10] = tested on: peritoneal macrophages of Swiss mice; set-up: method as in PMID 21531758; settings: murine macrophage; cited from earlier work

Compound: O=C1C2=C(C(=O)c3ccccc31)[C@H]1Oc3ccccc3[C@H]1CO2 [LQB-118 (1)]
- IC50 [1]: 1.45 µM
- L. braziliensis SI (Selective Index) [2]: 2.46
- IC50 [3]: 1.73 µM
- IC50 [4]: 4.08 µM
- L. infantum SI (Selective Index) [5]: 5.68
- IC50 [6]: 3.4 µM
- L. amazonensis SI (Selective Index) [7]: 12.73
- IC50 [8]: 3.25 µM
- IC50 [9]: 7.5 µM
- CC50 [10]: 18.5 µM
